According to US20250296971A1, “GASTRIC INHIBITORY PEPTIDE RECEPTOR LIGANDS” (priority 2021, published 2025):
Where two headings read alike, the source gives them in different places. *1 amine or outer side, *2 acyl side, *3 side chain or, on linkers, in order; H or OH if unused. Where a SMILES comes first, the peptide text is derived from it. Bridges are numbered along the chain shown (N, C = ends). Side-chain parts run from the residue outwards. [ ]: non-standard residue; d: D form. The star is where a group is joined. X5 = NC(=O)[C@H](CCCCNC(=O)CN1CCN(CC(=O)O)CCN(CC(=O)O)CCN(CC(=O)O)CC1)NC(=O)CCC(=O)NCCCOCCOCCOCCCN*; NH(1-deoxy-D-glucityl) = OC[C@@H](O)[C@@H](O)[C@H](O)[C@@H](O)CN*; Pro(trans-4-NH2) = O=C([C@@H]1C[C@@H](N[*:3])CN1[*:1])[*:2]; Trp(5-Cl) = N[C@@H](Cc1c[nH]c2ccc(Cl)cc12)C(=O)O; Phe(3,4-Cl2) = N[C@@H](Cc1ccc(Cl)c(Cl)c1)C(=O)O; Pyridine(2,6-diCH2) = c1cc(C[*:1])nc(C[*:2])c1; Trp(5-F) = N[C@@H](Cc1c[nH]c2ccc(F)cc12)C(=O)O; 1Nal = N[C@@H](Cc1cccc2ccccc12)C(=O)O; mXylylene = c1cc(C[*:1])cc(C[*:2])c1; Glutaryl = O=C(CCCC(=O)[*:2])[*:1]; Hyp = O=C(O)[C@@H]1C[C@@H](O)CN1; Suc = O=C(CCC(=O)[*:2])[*:1]; Thp = NC1(C(=O)O)CCOCC1; Aib = CC(C)(N)C(=O)O

Biological target: T1, GIPR (CHO-K1-hGIPR cells) (Homo sapiens, UniProt P48546)
T1 construct: host or cells: CHO-K1
T1 sequence (P48546 22-466): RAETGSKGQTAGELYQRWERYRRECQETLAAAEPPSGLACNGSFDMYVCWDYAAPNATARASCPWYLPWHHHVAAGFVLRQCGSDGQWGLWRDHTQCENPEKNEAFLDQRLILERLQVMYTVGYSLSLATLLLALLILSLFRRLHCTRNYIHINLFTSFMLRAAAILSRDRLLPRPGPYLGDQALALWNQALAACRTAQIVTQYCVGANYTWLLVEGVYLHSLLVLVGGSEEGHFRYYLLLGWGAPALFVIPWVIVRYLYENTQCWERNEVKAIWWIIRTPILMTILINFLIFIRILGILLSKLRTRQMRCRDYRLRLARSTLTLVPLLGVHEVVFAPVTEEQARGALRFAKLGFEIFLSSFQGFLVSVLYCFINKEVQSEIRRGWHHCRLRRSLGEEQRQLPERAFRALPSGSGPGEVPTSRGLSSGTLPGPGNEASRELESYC
Test: FACS binding assay
Conditions: for IC50: read-out: pIC50 Category (converted)
In short: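 CHO-K1 cells stably expressing human GIPR were detached with Accutase, suspended at 500.000 cells per mL in PBS with 1% FCS, and washed ice-cold. Bound peptide was detected with 1 μg/mL APC-streptavidin for 30 min on ice.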

[1] = competition with 20 nM GIP-057, 4° C., 1 hour
[2] = competition with 20 nM GIP-057, 4° C. for 1 hour

IC50 [1] [µM] | Compound | further results
< 0.01 | CC[C@H](C)[C@@H]1NC(=O)[C@H](CC(C)C)NC(=O)C(C)(C)NC(=O)[C@@H](NC(=O)[C@@H](CC(C)C)NC(=O)[C@H](CCC(=O)O)NC(=O)[C@@H]2CCCN2C(=O)[C@H](Cc2cccc3ccccc23)NC(=O)[C@H](Cc2c[nH]c3ccc(F)cc23)NC(=O)[C@H](CC(=O)O)NC(C)=O)CSCc2cccc(c2)CSC[C@@H](C(=O)NCCCOCCOCCOCCCNC(=O)CCC(=O)N[C@@H](CCCCNC(=O)CN2CCN(CC(=O)O)CCN(CC(=O)O)CCN(CC(=O)O)CC2)C(N)=O)NC1=O [GIP-083, Ac-Asp-5Fw-1Ni-Pro-Glu-leu-[Cys(3MeBn)-Aib-Leu-Ile-Cys]-Ttds-Lys(DOTA)-NH2] (Ac-D[Trp(5-F)][1Nal]PE[dL]C[Aib]LIC-X5; linker 7-11 via mXylylene) | –
< 0.01 | CC[C@H](C)[C@@H]1NC(=O)[C@H](CC(C)C)NC(=O)C2(CCOCC2)NC(=O)[C@@H](NC(=O)[C@@H](CC(C)C)NC(=O)[C@H](CCC(=O)O)NC(=O)[C@@H]2C[C@@H](O)CN2C(=O)[C@H](Cc2ccc(Cl)c(Cl)c2)NC(=O)[C@H](Cc2c[nH]c3ccccc23)NC(=O)[C@H](CC(=O)O)NC(C)=O)CSCc2cccc(n2)CSC[C@@H](C(N)=O)NC1=O [GIP-213, Ac-Asp-Trp-Eaa-Hyp-Glu-leu-[Cys(2Lut)-Thp-Leu-Ile-Cys]-NH2] (Ac-DW[Phe(3,4-Cl2)][Hyp]E[dL]C[Thp]LIC-NH2; linker 7-11 via Pyridine(2,6-diCH2)) | –
– | CC[C@H](C)[C@@H]1NC(=O)[C@H](CC(C)C)NC(=O)[C@H](C)NC(=O)[C@@H](NC(=O)[C@H](CC(C)C)NC(=O)[C@H](CCC(=O)O)NC(=O)[C@@H]2CCCN2C(=O)[C@H](Cc2c[nH]c3ccccc23)NC(=O)[C@H](C)NC(=O)[C@H](CC(=O)O)NC(=O)[C@H](Cc2ccc(O)cc2)NC(=O)[C@@H](N)CCSC)CSCc2cccc(c2)CSC[C@@H](C(N)=O)NC1=O [GIP-333] (H-MYDAWPELCALIC-NH2; linker 9-13 via mXylylene) | IC50 [2]: > 1 µM
– | MeO2kDaPEGAc-Asp-Trp-5Clw-Hyp-Glu-leu-[Cys(2Lut)-Thp-Leu-Ile-Cys]-lys(DOTA)-NH2 [GIP-120] | pIC50 Category [1]: A (pIC50 values>8.0)
– | CC[C@H](C)[C@@H]1NC(=O)[C@H](CC(C)C)NC(=O)[C@H](C)NC(=O)[C@@H](NC(=O)[C@H](CC(C)C)NC(=O)[C@H](C)NC(=O)[C@@H]2CCCN2C(=O)[C@H](Cc2c[nH]c3ccccc23)NC(=O)[C@H](Cc2c[nH]c3ccccc23)NC(=O)[C@H](CC(=O)O)NC(=O)[C@H](Cc2ccc(O)cc2)NC(=O)[C@@H](N)CCSC)CSCc2cccc(c2)CSC[C@@H](C(N)=O)NC1=O [GIP-335] (H-MYDWWPALCALIC-NH2; linker 9-13 via mXylylene) | IC50 [2]: > 1 µM
< 0.01 | CC[C@H](C)[C@@H]1NC(=O)[C@H](CC(C)C)NC(=O)C2(CCOCC2)NC(=O)[C@@H](NC(=O)[C@@H](CC(C)C)NC(=O)[C@H](CCC(=O)O)NC(=O)[C@@H]2C[C@@H](NC(=O)CCCC(=O)NC[C@H](O)[C@@H](O)[C@H](O)[C@H](O)CO)CN2C(=O)[C@H](Cc2c[nH]c3ccc(Cl)cc23)NC(=O)[C@H](Cc2c[nH]c3ccccc23)NC(=O)[C@H](CC(=O)O)NC(C)=O)CSCc2cccc(n2)CSC[C@@H](C(N)=O)NC1=O [GIP-175, Ac-Asp-Trp-5Clw-Tap (AGLU-Glutar)-Glu-leu-[Cys(2Lut)-Thp-Leu-Ile-Cys]-NH2] (Ac-DW[Trp(5-Cl)][Pro(trans-4-NH2)]([Glutaryl-NH(1-deoxy-D-glucityl)])E[dL]C[Thp]LIC-NH2; linker 7-11 via Pyridine(2,6-diCH2)) | –
< 0.01 | CC[C@H](C)[C@@H]1NC(=O)[C@H](CC(C)C)NC(=O)C(C)(C)NC(=O)[C@@H](NC(=O)[C@@H](CC(C)C)NC(=O)[C@H](CCC(=O)O)NC(=O)[C@@H]2CCCN2C(=O)[C@H](Cc2c[nH]c3ccc(Cl)cc23)NC(=O)[C@H](Cc2c[nH]c3ccccc23)NC(=O)CCC(=O)O)CSCc2cccc(c2)CSC[C@@H](C(N)=O)NC1=O [GIP-198, HO-Succinyl-Trp-5Clw-Pro-Glu-leu-[Cys(3MeBn)-Aib-Leu-Ile-Cys]-NH2] (Suc-W[Trp(5-Cl)]PE[dL]C[Aib]LIC-NH2; linker 6-10 via mXylylene) | –
